Read-outs that look alike come from different tables or passages of the source.

One assay concerns Zymoseptoria tritici. In words: Fungicidal activity: leaf blotch of wheat (SEPTTR), disease control on wheat seedlings. Particulars: for pest or weed control at 100 ppm: high volume application; for pest or weed control at 121.5 g/ha: low volume application, 121.5 g/H. It counts as in vivo. On the procedure:
Technical grades of materials were dissolved in acetone, which were then mixed with nine volumes of water (H2O) containing 110 ppm Triton X-100. The fungicide solutions were applied onto wheat seedlings using an automated booth sprayer to run-off. All sprayed plants were allowed to air dry prior to further handling. All fungicides were evaluated using the aforementioned method for their activity vs. all target diseases, unless stated otherwise. Wheat leaf blotch and brown rust activity were also evaluated using track spray applications, in which case the fungicides were formulated as EC formulations, containing 0.1% Trycol 5941 in the spray solutions. Wheat plants (variety Yuma) were grown from seed in a greenhouse in 50% mineral soil/50% soil-less Metro mix until the first leaf was fully emerged, with 7-10 seedlings per pot. These plants were inoculated with an aqueous spore suspension of Zymoseptoria tritici either prior to or after fungicide treatments. After inoculation the plants were kept in 100% relative humidity (one day in a dark dew chamber followed by two to three days in a lighted dew chamber at 20° C.) to permit spores to germinate and infect the leaf. The plants were then transferred to a greenhouse set at 20° C. for disease to develop. When disease symptoms were fully expressed on the 1st leaves of untreated plants, infection levels were assessed on a scale of 0 to 100 percent disease severity. Percent disease control was calculated using the ratio of disease severity on treated plants relative to untreated plants.

The next assay deals with Puccinia triticina. The experiment in a line: Fungicidal activity: wheat brown rust (PUCCRT), disease control on wheat seedlings. The format is in vivo. Particulars: for pest or weed control at 100 ppm: high volume application; for pest or weed control at 121.5 g/ha: low volume application, 121.5 g/H. On the procedure:
Technical grades of materials were dissolved in acetone, which were then mixed with nine volumes of water (H2O) containing 110 ppm Triton X-100. The fungicide solutions were applied onto wheat seedlings using an automated booth sprayer to run-off. All sprayed plants were allowed to air dry prior to further handling. All fungicides were evaluated using the aforementioned method for their activity vs. all target diseases, unless stated otherwise. Wheat leaf blotch and brown rust activity were also evaluated using track spray applications, in which case the fungicides were formulated as EC formulations, containing 0.1% Trycol 5941 in the spray solutions. Wheat plants (variety Yuma) were grown from seed in a greenhouse in 50% mineral soil/50% soil-less Metro mix until the first leaf was fully emerged, with 7-10 seedlings per pot. These plants were inoculated with an aqueous spore suspension of Puccinia triticina either prior to or after fungicide treatments. After inoculation the plants were kept in a dark dew room at 22° C. with 100% relative humidity overnight to permit spores to germinate and infect the leaf. The plants were then transferred to a greenhouse set at 24° C. for disease to develop. Fungicide formulation, application and disease assessment followed the procedures as described in the Example A. Results of the evaluations are shown below in Table 4.

The mark [1] stands for this setting: 24 h, 1 day protectant, read-out: SEPTTR disease control, 1DP, HV activity at 100 ppm.
Setting [2] is: 24 h, 1 day protectant, read-out: SEPTTR disease control, 1DP, LV activity at 121.5 g/H.
The mark [3] stands for this setting: 72 h, 3 day curative, read-out: SEPTTR disease control, 3DC, HV activity at 100 ppm.
Where [4] appears, read: 72 h, 3 day curative, read-out: SEPTTR disease control, 3DC, LV activity at 121.5 g/H.
Where [5] appears, read: 24 h, 1 day protectant, read-out: PUCCRT disease control, 1DP, HV activity at 100 ppm.
[6] abbreviates: 24 h, 1 day protectant, read-out: PUCCRT disease control, 1DP, LV activity at 121.5 g/H.
[7] abbreviates: 72 h, 3 day curative, read-out: PUCCRT disease control, 3DC, HV activity at 100 ppm.
The mark [8] stands for this setting: 72 h, 3 day curative, read-out: PUCCRT disease control, 3DC, LV activity at 121.5 g/H.

As to `COc1cc[n+]([O-])c(C(=O)N[C@@H](C)C(=O)O[C@@H](C)C(c2ccc(C)cc2C)c2ccc(C)cc2C)c1O` [Compound 1, 2-(((S)-1-(((S)-1,1-bis(2,4-dimethylphenyl)propan-2-yl)oxy)-1-oxopropan-2-yl)carbamoyl)-3-hydroxy-4-methoxypyridine 1-oxide], the pest or weed control at 100 ppm in the assay on Zymoseptoria tritici (setting [1]) is more than 80%; in the assay with Zymoseptoria tritici (setting [3]) it was more than 80%; in the assay with Puccinia triticina (setting [5]) it was more than 80%; in the assay with Puccinia triticina (setting [7]), not above 80%. Moreover, the pest or weed control at 121.5 g/ha in the assay on Zymoseptoria tritici (setting [2]) is more than 80%; in the assay on Zymoseptoria tritici (setting [4]), more than 80%; in the assay with Puccinia triticina (setting [6]), more than 80%; in the assay with Puccinia triticina (setting [8]), not above 80%.
For the compound `COc1cc[n+]([O-])c(C(=O)N[C@@H](C)C(=O)O[C@@H](C)[C@@H](c2ccccc2)c2ccc(F)cc2)c1O` [Compound 2], the pest or weed control at 100 ppm with Zymoseptoria tritici (setting [1]), in the assay on Zymoseptoria tritici (setting [3]), with Puccinia triticina (setting [5]) and with Puccinia triticina (setting [7]) was more than 80% in each case. Further, the pest or weed control at 121.5 g/ha in the assay on Zymoseptoria tritici (setting [2]), in the assay on Puccinia triticina (setting [6]) and in the assay on Puccinia triticina (setting [8]) was more than 80% each time.
In the case of `COc1ccc(C(c2ccc(OC)cc2F)[C@H](C)OC(=O)[C@H](C)NC(=O)c2c(O)c(OC)cc[n+]2[O-])c(F)c1` [Compound 3], the pest or weed control at 100 ppm was more than 80% in the assay on Zymoseptoria tritici (setting [1]), not above 80% with Zymoseptoria tritici (setting [3]), more than 80% in the assay with Puccinia triticina (setting [5]) and more than 80% in the assay with Puccinia triticina (setting [7]). Moreover, the pest or weed control at 121.5 g/ha in the assay with Zymoseptoria tritici (setting [2]) was more than 80%; with Zymoseptoria tritici (setting [4]), not above 80%; with Puccinia triticina (setting [6]), more than 80%; in the assay on Puccinia triticina (setting [8]), not above 80%.
For `COc1ccc(F)c(C(c2cc(OC)ccc2F)[C@H](C)OC(=O)[C@H](C)NC(=O)c2c(O)c(OC)cc[n+]2[O-])c1` [Compound 4], the pest or weed control at 100 ppm in the assay with Zymoseptoria tritici (setting [1]) is not above 80%; in the assay with Puccinia triticina (setting [5]) it was more than 80%; in the assay with Puccinia triticina (setting [7]) it was not above 80%. In the assay with Zymoseptoria tritici (setting [4]), the pest or weed control at 121.5 g/ha was more than 80%.
In the case of `COc1cc[n+]([O-])c(C(=O)N[C@@H](C)C(=O)O[C@@H](C)C(c2ccc(Cl)c(Cl)c2)c2ccc(Cl)c(Cl)c2)c1O` [Compound 5], the pest or weed control at 100 ppm is more than 80% in the assay with Zymoseptoria tritici (setting [1]) and not above 80% in the assay with Zymoseptoria tritici (setting [3]). Also, the results for the pest or weed control at 121.5 g/ha in the assay on Zymoseptoria tritici (setting [2]), in the assay on Zymoseptoria tritici (setting [4]) and with Puccinia triticina (setting [6]) were more than 80%, not above 80% and not above 80%, respectively.
As for `COc1cc[n+]([O-])c(C(=O)N[C@@H](C)C(=O)O[C@@H](C)C(O)(c2ccc(Cl)c(F)c2)c2ccc(Cl)c(F)c2)c1O` [Compound 9], the pest or weed control at 100 ppm with Zymoseptoria tritici (setting [1]) is more than 80%. In addition, in the assay with Zymoseptoria tritici (setting [2]), the pest or weed control at 121.5 g/ha was more than 80%.
As to `COc1cc[n+]([O-])c(C(=O)N[C@@H](C)C(=O)O[C@@H](C)C(O)(c2ccc(Cl)c(Cl)c2)c2ccc(Cl)c(Cl)c2)c1O` [Compound 11], in the assay with Zymoseptoria tritici (setting [1]), the pest or weed control at 100 ppm was more than 80%. Further, the values for the pest or weed control at 121.5 g/ha with Zymoseptoria tritici (setting [2]) and in the assay on Zymoseptoria tritici (setting [4]) were more than 80% and not above 80%, respectively.
As for `COc1cc[n+]([O-])c(C(=O)N[C@@H](C)C(=O)O[C@@H](C)C(C)(c2ccccc2)c2ccccc2)c1O` [Compound 27], the pest or weed control at 100 ppm with Zymoseptoria tritici (setting [1]) and in the assay on Zymoseptoria tritici (setting [3]) was more than 80% throughout. In addition, the pest or weed control at 121.5 g/ha in the assay with Zymoseptoria tritici (setting [2]) and with Zymoseptoria tritici (setting [4]) was not above 80% in each case.
Take `COc1cc[n+]([O-])c(C(=O)N[C@@H](C)C(=O)O[C@@H](C)C(c2cccc(F)c2)c2cccc(F)c2)c1O` [Compound 35]: the pest or weed control at 121.5 g/ha in the assay with Zymoseptoria tritici (setting [2]) and in the assay on Zymoseptoria tritici (setting [4]) was not above 80% in each case.
As for `COc1cc[n+]([O-])c(C(=O)N[C@@H](C)C(=O)O[C@@H](C)C(c2cccc(OC)c2OC)c2cccc(OC)c2OC)c1O` [Compound 40], in the assay on Zymoseptoria tritici (setting [4]), the pest or weed control at 121.5 g/ha was not above 80%.
Consider `COc1ccc(F)cc1C(c1cc(F)ccc1OC)[C@H](C)OC(=O)[C@H](C)NC(=O)c1c(O)c(OC)cc[n+]1[O-]` [Compound 41], for which the pest or weed control at 121.5 g/ha in the assay with Zymoseptoria tritici (setting [2]) and in the assay on Zymoseptoria tritici (setting [4]) was not above 80% each time.

The record behind these values is patent publication US10111432B2, “Picolinamide N-oxide compounds with fungicidal activity” (Dow AgroSciences LLC, priority 2016, dated 2018).
